The supplement of paper PMC12513837
± gives the standard deviation of the averaged measurements.

Compound: CC(=O)N1CCc2c(c(N3CCCc4cc(-c5cnn(C)c5)c(C(F)F)cc43)nn2C2CCC(CN3CCN(c4ccc5c(c4)C(=O)N(C4CCC(=O)NC4=O)C5=O)CC3)CC2)C1 [CBPD-409]
Test: AUC of viability dose-response curve (relative to vehicle, 8 doses up to 10 µM) (fraction); higher = less sensitive (more viable); extreme values may be limits of the assay
Protocol: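 PRISM multiplexed pooled barcoded cell line viability screen at the Broad Institute, 887 cancer cell lines treated with CBPD-409 (p300/CBP PROTAC degrader) at 8 concentrations in threefold dilution, top dose 10 µM. The read-out is the area under the dose-response curve of relative viability versus vehicle (n=3). AUC < 0.3 is called strongly sensitive and AUC > 0.8 resistant.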

Test System | AUC of viability dose-response curve
8MGBA_CENTRAL_NERVOUS_SYSTEM | 0.79
22RV1_PROSTATE | 0.189
42MGBA_CENTRAL_NERVOUS_SYSTEM | 0.485
93T449_SOFT_TISSUE | 1
94T778_SOFT_TISSUE | 0.951
95T1000_SOFT_TISSUE | 0.44
143B_BONE | 1
253JBV_URINARY_TRACT | 1
253J_URINARY_TRACT | 1
639V_URINARY_TRACT | 0.515
647V_URINARY_TRACT | 0.394
697_HAEMATOPOIETIC_AND_LYMPHOID_TISSUE | 0.293
769P_KIDNEY | 0.395
786O_KIDNEY | 0.84
921_UVEA | 0.336
1618K_TESTIS | 0.518
1777NRPMET_TESTIS | 0.655
5637_URINARY_TRACT | 1
8305C_THYROID | 0.823
8505C_THYROID | 0.943
9505BIK_PANCREAS | 1
2313287_STOMACH | 0.631
A3KAW_HAEMATOPOIETIC_AND_LYMPHOID_TISSUE | 0.325

Test System | AUC of viability dose-response curve
A101D_SKIN | 1
A172_CENTRAL_NERVOUS_SYSTEM | 0.797
A253_SALIVARY_GLAND | 0.883
A375_SKIN | 0.47
A388_SKIN | 0.978
A427_LUNG | 0.884
A498_KIDNEY | 0.943
A549_LUNG | 1
A673_BONE | 1
A704_KIDNEY | 0.942
A1207_CENTRAL_NERVOUS_SYSTEM | 1
A2058_SKIN | 1
A2780_OVARY | 0.625
ABC1_LUNG | 0.977
ACCMESO1_PLEURA | 1
ACHN_KIDNEY | 0.807
AGS_STOMACH | 0.812
ALLSIL_HAEMATOPOIETIC_AND_LYMPHOID_TISSUE | 0.917
AM38_CENTRAL_NERVOUS_SYSTEM | 1
AMO1_HAEMATOPOIETIC_AND_LYMPHOID_TISSUE | 0.46
AN3CA_ENDOMETRIUM | 0.693
ANGMCSS_CENTRAL_NERVOUS_SYSTEM | 1
ASPC1_PANCREAS | 0.845

Test System | AUC of viability dose-response curve
AU565_BREAST | 1
BC3C_URINARY_TRACT | 1
BCPAP_THYROID | 0.885
BDCM_HAEMATOPOIETIC_AND_LYMPHOID_TISSUE | 0.431
BECKER_CENTRAL_NERVOUS_SYSTEM | 0.88
BEN_LUNG | 0.562
BFTC905_URINARY_TRACT | 0.443
BFTC909_KIDNEY | 1
BHT101_THYROID | 0.581
BHY_UPPER_AERODIGESTIVE_TRACT | 0.851
BICR6_UPPER_AERODIGESTIVE_TRACT | 0.907
BICR16_UPPER_AERODIGESTIVE_TRACT | 0.181
BICR18_UPPER_AERODIGESTIVE_TRACT | 1
BICR22_UPPER_AERODIGESTIVE_TRACT | 0.901
BICR31_UPPER_AERODIGESTIVE_TRACT | 0.695
BICR56_UPPER_AERODIGESTIVE_TRACT | 0.862
BICR78_UPPER_AERODIGESTIVE_TRACT | 0.547
BL2_HAEMATOPOIETIC_AND_LYMPHOID_TISSUE | 0.77
BLUE1_HAEMATOPOIETIC_AND_LYMPHOID_TISSUE | 0.311
BOKU_CERVIX | 0.581
BT12_SOFT_TISSUE | 0.706
BT16_SOFT_TISSUE | 1
BT474_BREAST | 0.643

Test System | AUC of viability dose-response curve
BT549_BREAST | 1
BV173_HAEMATOPOIETIC_AND_LYMPHOID_TISSUE | 0.271
C4I_CERVIX | 0.999
C32_SKIN | 0.562
C33A_CERVIX | 1
C75_LARGE_INTESTINE | 1
C80_LARGE_INTESTINE | 0.689
C8166_HAEMATOPOIETIC_AND_LYMPHOID_TISSUE | 0.546
CADOES1_BONE | 0.458 ± 0.12
CAKI1_KIDNEY | 0.644
CAL12T_LUNG | 0.645
CAL27_UPPER_AERODIGESTIVE_TRACT | 0.961
CAL29_URINARY_TRACT | 0.7
CAL33_UPPER_AERODIGESTIVE_TRACT | 0.694
CAL51_BREAST | 0.595
CAL54_KIDNEY | 0.502
CAL62_THYROID | 0.321
CAL72_BONE | 0.839
CAL78_BONE | 0.486
CAL120_BREAST | 0.497
CAL148_BREAST | 1
CALU1_LUNG | 0.901
CALU6_LUNG | 0.928

Test System | AUC of viability dose-response curve
CAMA1_BREAST | 0.746
CAOV3_OVARY | 0.648
CAPAN2_PANCREAS | 1
CAS1_CENTRAL_NERVOUS_SYSTEM | 0.665
CASKI_CERVIX | 0.376
CBAGPN_BONE | 0.79
CCFSTTG1_CENTRAL_NERVOUS_SYSTEM | 0.992
CCK81_LARGE_INTESTINE | 0.86
CCLFPEDS0003T_SOFT_TISSUE | 0.392
CCLP1_BILIARY_TRACT | 0.45
CCSW1_BILIARY_TRACT | 0.832
CFPAC1_PANCREAS | 1
CH157MN_CENTRAL_NERVOUS_SYSTEM | 0.899
CHAGOK1_LUNG | 0.748
CHL1_SKIN | 0.148
CHLA06ATRT_SOFT_TISSUE | 1
CHLA10_BONE | 0.97
CHLA15_AUTONOMIC_GANGLIA | 0.551
CHLA57_BONE | 0.647
CHLA200_CENTRAL_NERVOUS_SYSTEM | 0.168
